How the values were obtained:
[1] = test system: Scn2a^Q54 transgenic mice; test: Spontaneous seizure frequency in Scn2aQ54 mouse model of elevated persistent sodium current; assay type: in vivo
Text: Scn2a^Q54 transgenic mice were generated as described and are maintained as a congenic line on the C57BL/6J (Jax #000664) background (B6.Q54) (Kearney et al., 2001; PMID 11166117). For experiments, F1 generation mice were produced by crossing B6.Q54 hemizygous transgenic males with SJL/J (Jax #000686) females and genotyping for the Scn2a^Q54 transgene. Experimental animals used in this study were male and female postnatal day 18-21 (P18-21) mice, with the majority being P19-P20.
Dosing solutions were freshly formulated on the morning on the study. Dosing solution contained 0.5% methylcellulose with 0.2% Tween-80 was made with 1 mL 10% Tween-80 (in ddH20) and 49 mL 0.5% methylcellulose (in ddH20) either with or without (vehicle) Compound 1 (0.3 mg/kg, 1 mg/kg, 3 mg/kg, or 10 mg/kg). Each animal received a single administration of vehicle or Compound 1 by oral gavage.
For seizure monitoring, two mice were placed into a monitoring cage (23 cm×13 cm) and two side-view cameras were placed to record baseline spontaneous seizure activity. […] After the 30-minute recording, mice were administered Compound 1 or vehicle and returned to their home cage. After 30 minutes, the two mice were returned to the monitoring cage and recorded for an additional 30 minutes to assess post-treatment seizure activity. The number of focal motor seizures with forelimb clonus and repetitive movements lasting 1-5 seconds, and generalized tonic-clonic seizures (GTCS) with rearing and falling lasting approximately 1 minute were counted. Seizures were scored offline by an observer blinded to treatment and pre/post status of the video file.
The numbers of seizures before and after treatment were counted for each animal by a reviewer blinded to treatment and pre/post status of the video record. Mice that had less than three seizures or more than 35 seizures during the baseline period were excluded from the analysis as pre-defined in the study design. Statistical analysis was conducted using two-way repeated measures ANOVA and Sidak's multiple comparisons, with p<0.05 considered statistically significant (GraphPad Prism 8.4). Change in average seizure frequency was determined by averaging each group and then computing relative change as [(avg. post−avg. pre)/avg. pre], expressed as a percentage.

[2] = biological target: T1, hNaV1.6-N1768D (Homo sapiens, UniProt Q9UQD0, N1768D); test: Persistent INa expressed by DEE mutant channel, patch clamp; assay type: cell-based; settings: hNaV1.6-N1768D DEE mutant
T1 construct: expressed in transfected cells
T1 sequence (Q9UQD0 whole entry N1768D): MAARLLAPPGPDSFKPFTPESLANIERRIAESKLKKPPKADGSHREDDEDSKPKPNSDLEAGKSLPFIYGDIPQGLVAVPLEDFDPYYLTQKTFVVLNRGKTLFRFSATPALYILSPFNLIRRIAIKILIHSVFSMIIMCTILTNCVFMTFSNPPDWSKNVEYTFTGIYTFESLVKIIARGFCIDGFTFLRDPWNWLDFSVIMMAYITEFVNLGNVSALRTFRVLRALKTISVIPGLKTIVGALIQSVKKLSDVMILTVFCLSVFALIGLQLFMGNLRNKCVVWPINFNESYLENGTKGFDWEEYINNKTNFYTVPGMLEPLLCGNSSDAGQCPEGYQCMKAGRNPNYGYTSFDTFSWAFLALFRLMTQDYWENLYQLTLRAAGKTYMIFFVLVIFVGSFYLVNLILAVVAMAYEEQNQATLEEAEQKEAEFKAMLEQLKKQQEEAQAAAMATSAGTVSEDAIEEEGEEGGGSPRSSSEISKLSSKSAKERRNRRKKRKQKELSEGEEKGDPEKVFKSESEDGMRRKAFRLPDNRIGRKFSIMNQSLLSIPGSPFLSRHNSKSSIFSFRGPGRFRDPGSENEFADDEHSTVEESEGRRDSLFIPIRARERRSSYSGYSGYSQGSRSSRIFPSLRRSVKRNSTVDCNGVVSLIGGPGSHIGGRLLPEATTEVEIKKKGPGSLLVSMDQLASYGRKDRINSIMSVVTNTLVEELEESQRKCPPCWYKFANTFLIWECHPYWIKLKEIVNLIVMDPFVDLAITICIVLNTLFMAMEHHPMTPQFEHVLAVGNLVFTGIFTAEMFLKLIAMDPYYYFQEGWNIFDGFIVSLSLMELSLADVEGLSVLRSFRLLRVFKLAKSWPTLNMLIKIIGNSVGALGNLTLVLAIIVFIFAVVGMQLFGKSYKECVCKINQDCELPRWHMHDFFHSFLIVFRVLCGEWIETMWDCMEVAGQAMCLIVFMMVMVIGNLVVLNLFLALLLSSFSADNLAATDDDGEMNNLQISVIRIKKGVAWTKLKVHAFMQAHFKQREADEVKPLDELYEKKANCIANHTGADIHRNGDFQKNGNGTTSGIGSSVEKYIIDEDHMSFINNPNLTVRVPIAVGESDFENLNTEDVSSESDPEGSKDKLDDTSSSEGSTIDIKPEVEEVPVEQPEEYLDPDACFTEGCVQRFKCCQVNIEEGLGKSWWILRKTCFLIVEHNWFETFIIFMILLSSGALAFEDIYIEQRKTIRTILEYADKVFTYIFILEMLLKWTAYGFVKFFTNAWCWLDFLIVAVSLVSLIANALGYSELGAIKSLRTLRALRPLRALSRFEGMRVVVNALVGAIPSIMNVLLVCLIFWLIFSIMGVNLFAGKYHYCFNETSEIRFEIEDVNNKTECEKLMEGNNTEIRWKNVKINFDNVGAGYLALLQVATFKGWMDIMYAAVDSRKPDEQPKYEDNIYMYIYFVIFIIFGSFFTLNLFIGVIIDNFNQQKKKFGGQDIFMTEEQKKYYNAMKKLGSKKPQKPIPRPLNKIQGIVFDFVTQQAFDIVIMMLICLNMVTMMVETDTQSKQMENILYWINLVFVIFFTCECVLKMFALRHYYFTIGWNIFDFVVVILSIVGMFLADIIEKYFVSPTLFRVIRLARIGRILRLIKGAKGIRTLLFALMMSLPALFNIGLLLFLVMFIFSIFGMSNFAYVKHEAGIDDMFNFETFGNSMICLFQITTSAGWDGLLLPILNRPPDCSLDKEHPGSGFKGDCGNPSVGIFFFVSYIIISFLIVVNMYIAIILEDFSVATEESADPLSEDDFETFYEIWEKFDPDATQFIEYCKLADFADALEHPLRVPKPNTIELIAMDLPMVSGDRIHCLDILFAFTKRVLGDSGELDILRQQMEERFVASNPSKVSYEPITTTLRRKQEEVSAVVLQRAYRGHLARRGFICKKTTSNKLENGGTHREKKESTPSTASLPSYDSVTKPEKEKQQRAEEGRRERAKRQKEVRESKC

[3] = test system: healthy participants; test: 2-part Phase 1 trial (28 days; OXC combination): safety and tolerability; assay type: in vivo, human
Text: This was a 2-part randomized, placebo-controlled Phase 1 trial in healthy participants aged 18-55 years. […] PD effects were examined on quantitative EEG (qEEG; resting and vigilant conditions) and stimulated EEG using auditory steady state response (ASSR). A total of 48 participants were enrolled; Part A, n=30; Part B, n=18.

CCOC(F)(F)c1nnc2cnc(-c3cnc(OCC(F)(F)F)c(F)c3)cn12 [Compound 1, 3-(ethoxydifluoromethyl)-6-(5-fluoro-6-(2,2,2-trifluoroethoxy)pyridin-3-yl)-[1,2,4]triazolo[4,3-a]pyrazine]
mice showing seizures after dosing ([1]; 10 mg/kg): no mice showing any seizures
seizure frequency compared to pre-treatment baseline ([1]; 1, 3 and 10 mg/kg p.o., 30 min after treatment): significant reduction
protection from spontaneous seizures (FIG. 14A) ([1]; Scn2a Q54 DEE mouse model): completely block seizures
reduction in seizure frequency ([1]; doses of 1 mg/kg and above): 50%
IC50 [2]: 75 nM
tolerability in healthy adults ([3]; 90 mg, Part A): well tolerated
TEAEs mild in severity ([3]; Part A): 71%
TEAEs moderate ([3]; Part A): 29%
TEAEs severe ([3]; Part A): 0%
number of TEAEs ([3]; Part A): 35
participants with TEAEs ([3]; Part A (n=30 enrolled)): 13
TEAEs mild or moderate ([3]; Part A, 90 mg QD vs placebo): 100%
review of ALT/AST increases and rhabdomyolysis, causal association ([3]; Part B): did not identify a causal association
TEAEs mild or moderate ([3]; Part B, OXC + 120 mg Compound 1 vs OXC alone): 96%
TEAEs mild in severity ([3]; Part B, both arms): 51%
TEAEs moderate ([3]; Part B, both arms): 45%
TEAEs severe ([3]; Part B, both arms): 4%
number of TEAEs ([3]; Part B, both arms): 74
participants with TEAEs ([3]; Part B, both arms (n=18 enrolled)): 16
safety findings in vital signs, physical exams, ECGs, C-SSRS ([3]; Parts A and B): no clinically significant safety findings
